Our source for the Dmax and DC50 values is patent US20250114345A1, “COMPOUNDS AND COMPOSITIONS AS CBP/P300 DEGRADERS AND USES THEREOF” (Oncopia Therapeutics, Inc. d/b/a/ SK Life Science Labs, priority 2023, published 2025).

This experiment deals with T1, p300 (Homo sapiens, UniProt Q09472).
T1 construct: host or cells: A549 P300 HiBit cells
Description: P300 degradation, HiBit technology in A549 P300 HiBit cells (2 h). The class given is cell-based. As to conditions: 2 hrs post treatment; for Dmax: A549, A549 P300 HiBit cells; for DC50: A549 P300 HiBit cells. The essentials: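 A549 cells carrying HiBit-tagged p300 or CBP, seeded overnight at 37 °C/5% CO2, then treated with serial compound dilutions from 10 mM DMSO stocks. Incubation was 2 h for p300 and 24 h for CBP, followed by HiBit lytic detection reagent for 10 min at room temperature. Luminescence read gave degradation potency and Dmax.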

Each structure is given as a SMILES string.

T1 sequence (Q09472 whole entry): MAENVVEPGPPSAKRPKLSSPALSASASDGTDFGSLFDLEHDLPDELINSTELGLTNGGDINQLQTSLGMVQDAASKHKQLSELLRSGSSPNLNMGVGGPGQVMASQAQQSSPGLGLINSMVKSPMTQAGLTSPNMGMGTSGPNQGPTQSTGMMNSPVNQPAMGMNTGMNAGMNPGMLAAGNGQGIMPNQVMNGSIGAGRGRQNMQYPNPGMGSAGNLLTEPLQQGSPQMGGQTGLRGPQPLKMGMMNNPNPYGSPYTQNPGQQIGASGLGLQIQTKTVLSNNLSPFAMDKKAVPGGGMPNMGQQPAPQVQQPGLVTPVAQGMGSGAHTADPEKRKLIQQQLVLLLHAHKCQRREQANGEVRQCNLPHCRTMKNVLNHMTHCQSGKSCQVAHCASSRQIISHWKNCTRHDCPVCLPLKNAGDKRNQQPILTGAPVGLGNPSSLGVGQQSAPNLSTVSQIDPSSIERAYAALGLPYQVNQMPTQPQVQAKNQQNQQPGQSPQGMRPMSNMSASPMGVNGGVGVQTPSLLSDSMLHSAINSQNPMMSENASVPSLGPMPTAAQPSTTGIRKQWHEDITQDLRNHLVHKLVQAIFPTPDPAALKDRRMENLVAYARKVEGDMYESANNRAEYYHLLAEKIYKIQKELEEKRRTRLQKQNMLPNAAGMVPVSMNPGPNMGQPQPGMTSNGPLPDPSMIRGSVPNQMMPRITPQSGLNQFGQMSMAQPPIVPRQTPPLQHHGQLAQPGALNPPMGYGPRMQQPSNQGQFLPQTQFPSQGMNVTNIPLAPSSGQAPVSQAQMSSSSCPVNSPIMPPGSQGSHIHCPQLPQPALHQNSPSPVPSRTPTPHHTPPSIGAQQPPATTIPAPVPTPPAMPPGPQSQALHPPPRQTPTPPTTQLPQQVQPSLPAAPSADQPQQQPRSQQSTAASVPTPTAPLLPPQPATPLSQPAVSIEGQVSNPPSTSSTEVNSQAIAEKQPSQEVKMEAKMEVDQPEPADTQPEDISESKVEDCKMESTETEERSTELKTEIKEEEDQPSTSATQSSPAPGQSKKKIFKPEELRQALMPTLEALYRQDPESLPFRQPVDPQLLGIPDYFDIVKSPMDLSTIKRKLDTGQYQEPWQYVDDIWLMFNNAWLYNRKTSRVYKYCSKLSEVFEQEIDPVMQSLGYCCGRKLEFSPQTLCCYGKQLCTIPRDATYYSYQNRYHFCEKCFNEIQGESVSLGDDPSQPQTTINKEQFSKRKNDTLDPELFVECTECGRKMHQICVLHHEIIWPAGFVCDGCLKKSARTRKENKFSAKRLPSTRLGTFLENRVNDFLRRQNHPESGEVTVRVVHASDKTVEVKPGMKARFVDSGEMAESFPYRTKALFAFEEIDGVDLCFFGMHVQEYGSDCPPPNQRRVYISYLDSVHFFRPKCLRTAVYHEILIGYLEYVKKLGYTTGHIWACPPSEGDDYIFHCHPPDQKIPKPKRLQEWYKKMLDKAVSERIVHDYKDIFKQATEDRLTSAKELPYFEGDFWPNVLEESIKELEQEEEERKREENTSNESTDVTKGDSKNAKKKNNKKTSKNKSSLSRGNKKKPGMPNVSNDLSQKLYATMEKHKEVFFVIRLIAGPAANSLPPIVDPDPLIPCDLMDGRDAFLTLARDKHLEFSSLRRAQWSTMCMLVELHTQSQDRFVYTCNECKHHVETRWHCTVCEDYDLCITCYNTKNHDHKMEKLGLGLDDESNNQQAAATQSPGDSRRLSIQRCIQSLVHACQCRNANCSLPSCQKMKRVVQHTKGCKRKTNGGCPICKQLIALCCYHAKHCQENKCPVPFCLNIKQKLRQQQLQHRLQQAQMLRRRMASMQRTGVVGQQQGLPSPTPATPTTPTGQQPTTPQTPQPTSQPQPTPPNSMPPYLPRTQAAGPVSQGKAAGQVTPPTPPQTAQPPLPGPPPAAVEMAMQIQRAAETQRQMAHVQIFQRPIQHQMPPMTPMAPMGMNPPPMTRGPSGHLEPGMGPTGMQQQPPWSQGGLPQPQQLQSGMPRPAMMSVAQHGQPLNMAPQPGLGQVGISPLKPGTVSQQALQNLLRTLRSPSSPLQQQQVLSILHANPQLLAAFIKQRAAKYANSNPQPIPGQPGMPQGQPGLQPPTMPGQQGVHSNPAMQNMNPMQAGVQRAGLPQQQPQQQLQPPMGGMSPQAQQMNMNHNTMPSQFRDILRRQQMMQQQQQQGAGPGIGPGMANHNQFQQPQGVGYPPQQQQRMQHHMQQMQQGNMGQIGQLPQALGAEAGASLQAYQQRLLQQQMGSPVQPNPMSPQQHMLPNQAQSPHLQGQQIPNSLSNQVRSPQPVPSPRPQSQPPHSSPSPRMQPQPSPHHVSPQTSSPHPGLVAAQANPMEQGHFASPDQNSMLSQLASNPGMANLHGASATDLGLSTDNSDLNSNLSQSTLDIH

Turning to `CCc1cc(N(C)c2ccc(-c3cnc(C(=O)NCC#Cc4cccc(NC5CCC(=O)NC5=O)c4)c(C)c3)c(F)c2)c2cc(C)c(=O)n(C)c2c1` (stereo not shown) [Example B19, N-(3-(3-((2,6-Dioxopiperidin-3-yl)amino)phenyl)prop-2-yn-1-yl)-5-(4-((7-ethyl-1,3-dimethyl-2-oxo-1,2-dihydroquinolin-5-yl)(methyl)amino)-2-fluorophenyl)-3-methylpicolinamide], the maximal degradation (Dmax) is over 80% and the DC50 fell in the range of 10 to 99 nM.

Turning to `Cc1cc(-c2cc3c(cc2F)N(c2cccc4c2cc(C)c(=O)n4C)CCO3)cnc1C(=O)NCC#Cc1ccc2occ(C3CCC(=O)NC3=O)c2c1` (stereo not shown) [Example B21, 5-(4-(1,3-dimethyl-2-oxo-1,2-dihydroquinolin-5-yl)-6-fluoro-3,4-dihydro-2H-benzo[b][1,4]oxazin-7-yl)-N-(3-(3-(2,6-dioxopiperidin-3-yl)benzofuran-5-yl)prop-2-yn-1-yl)-3-methylpicolinamide], the greatest degradation seen (Dmax) was over 80% and the DC50 is 1 to 9.9 nM.

In turn, `Cc1cc2c(N3CCCc4cc(-c5ccc(C(=O)NCC#Cc6ccc7occ(C8CCC(=O)NC8=O)c7c6)nc5)c(C(F)F)cc43)cccc2n(C)c1=O` (stereo not shown) [Example B22, 5-(7-(difluoromethyl)-1′,3′-dimethyl-2′-oxo-1′,2′,3,4-tetrahydro-2H-[1,5′-biquinolin]-6-yl)-N-(3-(3-(2,6-dioxopiperidin-3-yl)benzofuran-5-yl)prop-2-yn-1-yl)picolinamide] registered a Dmax of over 80% and a DC50 of 1 to 9.9 nM.

On to `Cc1cc2c(N3CCCc4nc(-c5ccc(C(=O)NCC#Cc6ccc7occ(C8CCC(=O)NC8=O)c7c6)nc5)ncc43)nc(N3CCC(F)CC3)cc2n(C)c1=O` (stereo not shown) [Example B27, N-(3-(3-(2,6-dioxopiperidin-3-yl)benzofuran-5-yl)prop-2-yn-1-yl)-5-(5-(7-(4-fluoro-piperidin-1-yl)-1,3-dimethyl-2-oxo-1,2-dihydro-1,6-naphthyridin-5-yl)-5,6,7,8-tetrahydropyrido[3,2-d]pyrimidin-2-yl) picolinamide], for which the Dmax was in the range of 60 to 79% and the DC50 was 1 to 9.9 nM.

As to `Cc1cc2c(N3CCN(C)c4cc(-c5ccc(C(=O)NCC#Cc6ccc7occ(C8CCC(=O)NC8=O)c7c6)nc5)ncc43)cc(C3CCOCC3)cc2n(C)c1=O` (stereo not shown) [Example B31, 5-(4-(1,3-dimethyl-2-oxo-7-(tetrahydro-2H-pyran-4-yl)-1,2-dihydroquinolin-5-yl)-1-methyl-1,2,3,4-tetrahydropyrido[3,4-b]pyrazin-7-yl)-N-(3-(3-(2,6-dioxopiperidin-3-yl)benzofuran-5-yl)prop-2-yn-1-yl) picolinamide], the Dmax was over 80% and the DC50 is under 1 nM.

In turn, `Cc1cc2c(N3CCN(C)c4nc(-c5ccc(C(=O)NCC#Cc6ccc7occ(C8CCC(=O)NC8=O)c7c6)nc5)ncc43)cccc2n(C)c1=O` (stereo not shown) [Example B33, 5-(5-(1,3-dimethyl-2-oxo-1,2-dihydroquinolin-5-yl)-8-methyl-5,6,7,8-tetrahydropteridin-2-yl)-N-(3-(3-(2,6-dioxopiperidin-3-yl)benzofuran-5-yl)prop-2-yn-1-yl)picolinamide] showed a Dmax of over 80% and a half-maximal degradation concentration (DC50) of 1 to 9.9 nM.

In the case of `Cc1cc2c(N3CCCc4cc(-c5ccc(C(=O)NCC#Cc6cc7c(C8CCC(=O)NC8=O)cccc7o6)nc5)nnc43)cccc2n(C)c1=O` (stereo not shown) [Example B34, 5-(8-(1,3-dimethyl-2-oxo-1,2-dihydroquinolin-5-yl)-5,6,7,8-tetrahydropyrido[2,3-c]pyridazin-3-yl)-N-(3-(4-(2,6-dioxopiperidin-3-yl)benzofuran-2-yl)prop-2-yn-1-yl)picolinamide], the maximal degradation (Dmax) was over 80% and the half-maximal degradation concentration (DC50) was under 1 nM.

As for `Cc1cc2c(N3CCCc4nc(-c5cnc(C(=O)NCC#Cc6cc7c(C8CCC(=O)NC8=O)cccc7o6)c(Cl)c5)ncc43)cccc2n(C)c1=O` (stereo not shown) [Example B36, 3-chloro-5-(5-(1,3-dimethyl-2-oxo-1,2-dihydroquinolin-5-yl)-5,6,7,8-tetrahydropyrido [3,2-d]pyrimidin-2-yl)-N-(3-(4-(2,6-dioxo-piperidin-3-yl)benzofuran-2-yl)prop-2-yn-1-yl)picolinamide], the Dmax was over 80% and the 50% degradation concentration (DC50) lay in the range of 1 to 9.9 nM.

Regarding `Cc1cc(N2CCN(C)c3cc(-c4ccc(C(=O)NCC#Cc5cc6c(C7CCC(=O)NC7=O)cccc6o5)nc4)ncc32)c2cc(C)c(=O)n(C)c2c1` (stereo not shown) [Example B40, N-(3-(4-(2,6-dioxopiperidin-3-yl)benzofuran-2-yl)prop-2-yn-1-yl)-5-(1-methyl-4-(1,3,7-trimethyl-2-oxo-1,2-dihydroquinolin-5-yl)-1,2,3,4-tetrahydropyrido[3,4-b]pyrazin-7-yl) picolinamide], the Dmax was over 80% and the DC50 is under 1 nM.

With `Cc1cc2c(N3CCOc4cc(-c5ccc(C(=O)NCC#Cc6ccc7occ(C8CCC(=O)NC8=O)c7c6)nc5)ccc43)cc(C3CCOCC3)cc2n(C)c1=O` (stereo not shown) [Example B41, 5-(4-(1,3-dimethyl-2-oxo-7-(tetrahydro-2H-pyran-4-yl)-1,2-dihydroquinolin-5-yl)-3,4-dihydro-2H-benzo[b][1,4]oxazin-7-yl)-N-(3-(3-(2,6-dioxopiperidin-3-yl)benzofuran-5-yl)prop-2-yn-1-yl)picolinamide], the Dmax was over 80% and the DC50 lay in the range of 1 to 9.9 nM.

`CCc1cc(N2CCCc3nc(-c4ccc(C(=O)NCC#Cc5ccc6occ(C7CCC(=O)NC7=O)c6c5)nc4)ncc32)c2cc(C)c(=O)n(C)c2c1` (stereo not shown) [Example B43, N-(3-(3-(2,6-dioxopiperidin-3-yl)benzofuran-5-yl)prop-2-yn-1-yl)-5-(5-(7-ethyl-1,3-dimethyl-2-oxo-1,2-dihydroquinolin-5-yl)-5,6,7,8-tetrahydropyrido[3,2-d]pyrimidin-2-yl) picolinamide] gave a Dmax of over 80% and a DC50 of 1 to 9.9 nM.

In turn, `Cc1cc2c(N3CCCc4nc(-c5ccc6c(c5)C(=O)N(CC#Cc5ccc7occ(C8CCC(=O)NC8=O)c7c5)C6)ncc43)cc(C3CCOCC3)cc2n(C)c1=O` (stereo not shown) [Example B44, 3-(5-(3-(6-(5-(1,3-dimethyl-2-oxo-7-(tetrahydro-2H-pyran-4-yl)-1,2-dihydroquinolin-5-yl)-5,6,7,8-tetrahydropyrido[3,2-d]pyrimidin-2-yl)-1-oxoisoindolin-2-yl)prop-1-yn-1-yl)benzofuran-3-yl)piperidine-2,6-dione] gave a Dmax of 20 to 39% and a DC50 of 1 to 9.9 nM.

As to `Cc1cc(-c2ncc3c(n2)CCCN3c2cccc3c2cc(C)c(=O)n3C)cnc1C(=O)NCC#Cc1ccc2occ(C3CCC(=O)NC3=O)c2c1` (stereo not shown) [Example B45, 5-(5-(1,3-dimethyl-2-oxo-1,2-dihydroquinolin-5-yl)-5,6,7,8-tetrahydropyrido[3,2-d]pyrimidin-2-yl)-N-(3-(3-(2,6-dioxopiperidin-3-yl)benzofuran-5-yl)prop-2-yn-1-yl)-3-methylpicolinamide], the Dmax was over 80% and the DC50 was in the range of 1 to 9.9 nM.

As for `COc1cc(-c2ncc3c(n2)CCCN3c2cccc3c2cc(C)c(=O)n3C)cnc1C(=O)NCC#Cc1ccc2occ(C3CCC(=O)NC3=O)c2c1` (stereo not shown) [Example B50, 5-(5-(1,3-dimethyl-2-oxo-1,2-dihydroquinolin-5-yl)-5,6,7,8-tetrahydropyrido[3,2-d]pyrimidin-2-yl)-N-(3-(3-(2,6-dioxopiperidin-3-yl)benzofuran-5-yl)prop-2-yn-1-yl)-3-methoxypicolinamide], the Dmax was over 80% and the 50% degradation concentration (DC50) lay in the range of 1 to 9.9 nM.

Usually Dmax stands for the greatest extent of degradation seen. A lower Dmax goes with shallow degradation. Broadly, the DC50 is the concentration giving 50% degradation.
